The structures appear in SMILES notation.

Test [1] has as its target T1, non-pathological (WT) tau (Homo sapiens, UniProt P10636).
T1 construct: made in house; host or cells: Star pLysS cells (E. coli), pRSET-B vector, IPTG induction
The test can be described thus: SPR binding affinity of tau PROTAC to WT tau. To be noted: CM5 sensor chip, concentration-dependent kinetic assay, nonpathological WT tau, read-out: binding affinity (Ka) to tau. As to the method: (§1) The following experiment was performed to verify that the compound according to the present invention selectively degrades only phosphorylated tau. In order to biophysically analyze selective binding of the tau PROTAC to P301S, which is known as a representative mutant of pathological tau, non-pathological (WT) tau and pathological (P301S) tau were cloned into pRSET-B vectors to obtain plasmids. Star pLysS cells were used to overexpress proteins and 1 mM IPTG was added to the medium at an OD600 of 0.4 to 0.6. The intracellular proteins were extracted from the cells lysed in a lysis buffer through heat shock (95° C.), and WT tau and P301S tau were obtained at a high purity (>95%) using cation exchange chromatography and size exclusion chromatography.
(§2) Whether or not the obtained proteins bound to the tau PROTAC was determined through an SPR experiment. A CM5 sensor chip including dextran attached thereto was used, tau PROTAC was allowed to flow and the binding affinity between the protein and the compound was determined based on a response unit (RU). The binding affinity (Ka) to the protein was measured using concentration-dependent kinetic assay. The results of measurement of binding affinity between the tau PROTAC compound and non-pathological WT Tau or pathological P301S tau are shown in FIG. 2. […]

The next test has as its target T2, P-Tau (S396) (Homo sapiens, UniProt P10636, P618L).
T2 construct: host or cells: HEK293T
Nature of the test: Phosphorylated tau degradation in HEK293T P301L mutant cell line, Western blot, P-Tau S396. The format is cell-based. As to conditions: 72 hours, HEK293T P301L cells, Western blot quantified with Image J. An excerpt:
(§3) Specifically, the pRK5-EGFP-Tau P301L vector from Addgene (Addgene, MA, USA) was purchased and used in order to stably express P301L, which is a known representative mutation of pathological tau, in HEK293T cells. The P301L vector was inserted into HEK293T cells using a FuGENE HD transfection reagent (Promega, WI, USA) and then stabilized. The cells were removed therefrom and then only the cells into which the vector was inserted were isolated using a fluorescence-activated cell sorter (BD FACS Aria III, BD Bioscience, NJ, USA). After the isolated cells were incubated for 2 to 3 days, they were removed again and separated and cultured using a FACS twice to finally obtain a HEK293T P301 mutant cell line.
(§4) The obtained cells were seeded in each well of a 6-well plate and stabilized for 18 hours, and then each well was treated with the compound of Example 1 such that the final concentration reached 1 or 10 μM. The control group was treated with the same concentration (0.01%) of DMSO used as the solvent of the compound of Example. 72 hours later, the protein was extracted with a lysis buffer and quantified, and then Western blot was performed. A protein sample was electrophoresed on a 4-20% mini-PROTEIN TGX precast protein gel (Bio-Rad, CA, USA) and transferred to a PVDF membrane (Immobilon-P, Merck, Darmstadt, Germany). The primary antibodies used herein were P-Tau AT8 (#MN1020), P-Tau S396 (#44-752G), and P-Tau S356 (#44-751G) from ThermoFisher scientific (MA, USA), and GAPDH (SC-47724) from SANTA CRUZ Biotechnology (TX, USA). The secondary antibody used herein was rabbit/mouse IgG from GeneTex (CA, USA). The image obtained through ImageQuant LAS 4000 (GE healthcare, IL, USA) and the result of quantification using an Image J program are shown in FIG. 1.

A further test has as its target T3, P-Tau AT8 (S202, T205) (Homo sapiens, UniProt P10636, P618L).
T3 construct: host or cells: HEK293T
The test can be described thus: Phosphorylated tau degradation in HEK293T P301L mutant cell line, Western blot, P-Tau AT8. In kind it is cell-based. To be noted: 72 hours, HEK293T P301L cells, Western blot quantified with Image J.
Excerpt: as §3, §4

The target in another test is T4, pathological (P301S) tau (Homo sapiens, UniProt P10636, P618S).
T4 construct: made in house; host or cells: Star pLysS cells (E. coli), pRSET-B vector, IPTG induction
T4 sequence (P10636 1-441 isoform P10636-8 P301S): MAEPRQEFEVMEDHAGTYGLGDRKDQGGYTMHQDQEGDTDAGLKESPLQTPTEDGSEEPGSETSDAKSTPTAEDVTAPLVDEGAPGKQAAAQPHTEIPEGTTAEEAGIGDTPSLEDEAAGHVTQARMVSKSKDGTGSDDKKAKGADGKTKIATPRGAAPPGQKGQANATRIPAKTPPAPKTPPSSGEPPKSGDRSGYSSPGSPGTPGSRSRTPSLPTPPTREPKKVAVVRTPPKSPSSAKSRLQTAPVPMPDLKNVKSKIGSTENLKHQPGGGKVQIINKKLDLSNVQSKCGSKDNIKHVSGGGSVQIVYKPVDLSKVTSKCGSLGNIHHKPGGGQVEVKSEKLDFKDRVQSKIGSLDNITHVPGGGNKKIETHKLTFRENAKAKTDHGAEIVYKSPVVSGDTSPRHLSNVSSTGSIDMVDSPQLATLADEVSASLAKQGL
Nature of the test: SPR binding affinity of tau PROTAC to P301S tau. As to conditions: CM5 sensor chip, concentration-dependent kinetic assay, read-out: binding affinity (Ka) to the P301S tau. As to the method: as §1, §2

For a further test, the target named is T5, P-Tau (S356) (Homo sapiens, UniProt P10636, P618L).
T5 construct: host or cells: HEK293T
T5 sequence (P10636 1-383 isoform P10636-6 P243L): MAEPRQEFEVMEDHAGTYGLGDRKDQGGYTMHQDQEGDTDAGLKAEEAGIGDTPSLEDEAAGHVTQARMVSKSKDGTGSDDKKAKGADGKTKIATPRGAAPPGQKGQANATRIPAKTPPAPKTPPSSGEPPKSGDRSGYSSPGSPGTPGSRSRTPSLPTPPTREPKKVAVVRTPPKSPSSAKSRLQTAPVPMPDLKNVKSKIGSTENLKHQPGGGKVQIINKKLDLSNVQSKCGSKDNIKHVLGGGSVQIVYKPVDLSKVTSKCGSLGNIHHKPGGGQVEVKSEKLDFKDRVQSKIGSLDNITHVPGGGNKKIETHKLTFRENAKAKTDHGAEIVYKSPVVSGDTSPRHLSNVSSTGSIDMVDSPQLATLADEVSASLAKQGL
Nature of the test: Phosphorylated tau degradation in HEK293T P301L mutant cell line, Western blot, P-Tau S356. To be noted: 72 hours, HEK293T P301L cells, Western blot quantified with Image J. In kind it is cell-based.
Excerpt: as §3, §4

T2 sequence (P10636 1-383 isoform P10636-6 P243L): as above
T3 sequence (P10636 1-383 isoform P10636-6 P243L): as above
T1 sequence (P10636 1-441 isoform P10636-8): as the sequence (P10636 1-441 isoform P10636-8 P301S) above, with S301P counted along it

Take `CCN1C(=O)/C(=C/c2cn(Cc3cn(CCOCCOCCOCC(=O)Nc4cccc5c4C(=O)N(C4CCC(=O)NC4=O)C5=O)nn3)c3cccnc23)NC1=S` (stereo not shown) [TAU-1 PROTAC, (Z)—N-(2-(2,6-dioxopiperidin-3-yl)-1,3-dioxoisoindolin-4-yl)-2-(2-(2-(2-(4-((3-((1-ethyl-5-oxo-2-thioxoimidazolidin-4-ylidene)methyl)-1H-pyrrolo[3,2-b]pyridin-1-yl)methyl)-1H-1,2,3-triazol-1-yl)ethoxy)ethoxy)ethoxy)acetamide]: the Kd stood at 190 µM in test [1] and 42 µM at pathological (P301S) tau. The “degradation activity, P-Tau (S396)” value at P-Tau (S396) (1 μM) and on P-Tau (S396) (10 μM) was 67% each time. For the same molecule, at P-Tau AT8 (S202, T205) (10 μM), the “degradation activity compared to the control group, P-Tau AT8 (S202, T205)” value is 26%. Also, the “phosphorylated tau degradation activity, P-Tau (S356)” value at P-Tau (S356) (10 μM) is reported as 81%.
Regarding `CCN1C(=O)/C(=C/c2cn(Cc3cn(CCOCCOCC(=O)Nc4cccc5c4C(=O)N(C4CCC(=O)NC4=O)C5=O)nn3)c3ccccc23)NC1=S` (stereo not shown) [TAU-2 PROTAC, (Z)—N-(2-(2,6-dioxopiperidin-3-yl)-1,3-dioxoisoindolin-4-yl)-2-(2-(2-(4-((3-((1-ethyl-5-oxo-2-thioxoimidazolidin-4-ylidene)methyl)-1H-indol-1-yl)methyl)-1H-1,2,3-triazol-1-yl)ethoxy)ethoxy)acetamide], the Kd in test [1] was 199 µM; at pathological (P301S) tau it was 18.7 µM. In addition, the “degradation activity, P-Tau (S396)” value on P-Tau (S396) (1 μM) is 30%. Besides, the “degradation activity compared to the control group, P-Tau AT8 (S202, T205)” value was found to be 59% on P-Tau AT8 (S202, T205) (1 μM) and 53% on P-Tau AT8 (S202, T205) (10 μM). The “phosphorylated tau degradation activity, P-Tau (S356)” value at P-Tau (S356) (1 μM) was 62%; on P-Tau (S356) (10 μM), 80%.

Values taken from patent publication US20230129364A1, “PYRROLIDINE DERIVATIVE, AND PHARMACEUTICAL COMPOSITION FOR PREVENTING OR TREATING BETA-AMYLOID OR TAU PROTEIN-ASSOCIATED DISEASES CONTAINING SAME” (YONSEI UNIVERSITY, UNIVERSITY - INDUSTRY FOUNDATION (UIF), priority 2019, published 2023).
